# Test results taken from patent publication US10308642B2, “Anti-hepatitis B virus agent” (FUJIFILM Toyama Chemical Co., Ltd., priority 2015, dated 2019).
# Read-outs that look alike come from different tables or passages of the source.
# Key:
# HBV [1] = experiment: Anti-HBV assay in HepG2.2.15 cells (HBV DNA by real-time PCR, HBsAg by chemiluminescent enzyme immunoassay in culture supernatant); assay type: cell-based; settings: Hepatitis B virus, 144 h, 6 days treatment
# Description: The anti-HBV activity of compounds 1 to 16 was evaluated as follows by using HepG2.2.15 cells (Proc. Natl. Acad. Sci. USA, 84, 1005-1009, 1987), which are obtained by introducing the HBV genome into hepatoblastoma cell line, HepG2, and persistently produce the virus.
# The following was used as a medium: DMEM/F-12,GlutaMAX(manufactured by Invitrogen)+5 μg/mL insulin (manufactured by Wako)+1% penicillin/streptomycin(manufactured by Sigma)+10 mmol/L HEPES(manufactured by Sigma)+50 μmol/L hydrocortisone(manufactured by Sigma)+10% FBS
# A mixture of each test compound with dimethyl sulfoxide (DMSO) was added to the medium to obtain a final concentration of DMSO of 1% (v/v), and thus, test solutions containing the test compound in various concentrations were prepared. In addition, a test solution obtained by adding DMSO alone to the medium to obtain a final concentration of 1% (v/v) was prepared as a control without drug.
# (1) The HepG2.2.15 cells were suspended in the medium and prepared a cell suspension at 1.5×10^5 cells/mL. The suspension was seeded in a 96-well microtiter plate (100 μL/well) and the plate was incubated in a 5% CO2 incubator at 37° C. for 1 day.
# (2) After removing the culture supernatant, the cells were washed twice with PBS(−) (100 μL/well) and then once with the medium (100 μL/well).
# (3) Each test solution was added to the plate (100 μL/well), and the plate was incubated in a 5% CO2 incubator at 37° C. for 3 days.
# (4) After removing the culture supernatant, the test solution was added to the plate again (100 μL/well) and the plate was incubated in a 5% CO2 incubator at 37° C. for 3 days.
# (5) The culture supernatant was collected and treated with a mixture of Buffer AL (manufactured by QIAGEN) and Proteinase K (manufactured by Invitrogen). The amount of HBV DNA in the solution was quantified by real-time PCR. In addition, the amount of HBsAg (hepatitis B surface antigen) in the culture supernatant was quantified by chemiluminescent enzyme immunoassay using a Lumipulse HBsAg-HQ (manufactured by Fujirebio Inc.). The relative viral load (%) of a well with the compound to a well without the compound was calculated. An IC50 of each compound was calculated using the FORECAST function (linear regression method) of Microsoft Excel 2007 by plotting the logarithm of the concentration against the relative viral load as a real number.
# HBV [2] = experiment: Anti-HBV assay in PXB-cells (fresh human hepatocytes from PXB mouse infected with HBV genotype AeUS); assay type: cell-based, hepatitis B virus (HBV); settings: 10 μmol/L
# Description: The anti-HBV activity of compound 8 was evaluated as follows by using fresh human hepatocyte (The PXB-cells were produced by PhenixBio Co., Ltd.) derived from a PXB mouse (a chimeric mouse with human hepatocyte).
# The following was used as a medium:
# 500 mL DMEM (manufactured by Sigma)+0.25 μg/mL insulin (manufactured by Wako)+1% penicillin/streptomycin. (manufactured by Sigma)+20 mmol/L HEPES (manufactured by Sigma)+15 μg/mL L-proline (manufactured by Sigma)+50 nmol/L dexamethasone (manufactured by Sigma)+5 ng/mL EGF (manufactured by Peprotech)+0.1 mmol/L ascorbic acid 2-phosphate (manufactured by Wako)+10% FBS+2% DMSO
# Compound 8 was further added to the medium to prepare a 10 μmol/L test solution.
# (1) The PXB-cells seeded at a 2.1×10^5 cells/cm^2 in a 48-well microliter plate were incubated in a 5% CO2 incubator at 37° C. for 5 days.
# (2) HBV derived from PXB mouse serum (genotype AeUS) was added to the medium supplemented with 4% PEG-8000. The PXB cells were infected with this solution at about 10 copies/cell (250 μL/well) and the plate was incubated in a 5% CO2 incubator at 37° C. for 1 day.
# (3) After the culture supernatant had been removed, the cells were washed three times with DMEM supplemented with 10% FBS and 1% penicillin/streptomycin. The medium was added to the plate (250 μL/well) and the plate was incubated in a 5% CO2 incubator at 37° C. for 1 day.
# (4) After removing the culture supernatant, the cells were washed three times with DMEM supplemented with 10% FBS and 1% penicillin/streptomycin. […]
# (11) The collected culture supernatant on day 32 post infection was purified using a QIAamp DNA Blood Mini Kit (manufactured by QIAGEN) and the amount of HVB DNA was quantified by real-time PCR. In addition, the amount of HBsAg (hepatitis B surface antigen) in the culture supernatant was quantified by chemiluminescent enzyme immunoassay using a Lumipulse HBsAg-HQ (manufactured by Fujirebio Inc.). The relative viral load (%) of a well with the compound to a well without the compound was calculated.
# [3] = HBV DNA in culture supernatant, real-time PCR, read-out: IC50 (μM) HBV-DNA
# [4] = HBsAg in culture supernatant, chemiluminescent enzyme immunoassay, read-out: IC50 (μM) HBsAg
# [5] = culture supernatant on day 32 post infection, relative to well without compound
SMILES,IC50 (HBV [1]; [3]) [µM],IC50 (HBV [1]; [4]) [µM],relative viral load with respect to the amount of HBV DNA (HBV [2]; [5]) [%],relative viral load with respect to the amount of HBsAg (HBV [2]; [5]) [%],anti-HBV activity (HBV [2]; statement in words)
O=C(O)c1cn(-c2ccc(F)cc2)c(-c2ccc(N3CCCC3)cc2)cc1=O [Compound 1],0.051,1.1,–,–,–
O=C(O)c1cn(-c2ccc(F)cc2)c(-c2sccc2-c2ccc([N+](=O)[O-])cc2)cc1=O [Compound 2],0.16,0.79,–,–,–
CN(C)c1ccc(-c2cc(=O)c(C(=O)O)cn2-c2cccc(F)c2)cc1 [Compound 3],0.86,5.7,–,–,–
O=C(O)c1cn(-c2ccc(F)cc2F)c(-c2ccc(N3CCCC3)cc2)cc1=O [Compound 4],0.088,2.1,–,–,–
COc1ccc(-n2cc(C(=O)O)c(=O)cc2-c2ccc(N(C)C)cc2)cc1 [Compound 5],0.33,4.6,–,–,–
O=C(O)c1cn(-c2ccc(F)cc2)c(-c2cc3ccccc3s2)cc1=O [Compound 6],1.1,5.8,–,–,–
CN(C)c1ccc(-c2cc(=O)c(C(=O)O)cn2-c2ccccc2F)cc1 [Compound 7],1.1,4.6,–,–,–
CN(C)c1ccc(-c2cc(=O)c(C(=O)O)cn2-c2ccc3c(c2)OCO3)cc1 [Compound 8],0.25,1.2,16,29,excellent anti-HBV activity
O=C(O)c1cn(-c2ccc(F)cc2F)c(-c2cc3ccccc3s2)cc1=O [Compound 9],0.23,3.6,–,–,–
CN(C)c1ccc(-c2cc(=O)c(C(=O)O)cn2-c2ccccc2O)cc1 [Compound 10],2.1,6.9,–,–,–
Cc1cc(-n2cc(C(=O)O)c(=O)cc2-c2ccc(N(C)C)cc2)ccc1O [Compound 11],0.8,3.7,–,–,–
COc1ccc(-n2cc(C(=O)O)c(=O)cc2-c2ccc(N(C)C)cc2)c(F)c1 [Compound 12],1.4,4.9,–,–,–
Cc1cc(O)ccc1-n1cc(C(=O)O)c(=O)cc1C1CCC(Br)C(Br)C1 (centres unmarked) [Compound 13],0.49,1.8,–,–,–
O=C(O)c1cn(-c2ccc(F)cc2)c(-c2ccc(-c3cccs3)cc2)cc1=O [Compound 14],0.91,4.2,–,–,–
CN(C)c1ccc(-c2cc(=O)c(C(=O)O)cn2-c2cc(Cl)c(O)c(Cl)c2)cc1 [Compound 15],4.5,11,–,–,–
CNc1ccc(-c2cc(=O)c(C(=O)O)cn2-c2ccc(F)cc2)cc1 [Compound 16],7.9,35,–,–,–
